Experimental data as given in publication PMC9896555, “Cyclic Acetals as Novel Long-Lasting Mosquito Repellents” (Journal of Agricultural and Food Chemistry, 2023).
Like-named read-outs stand apart in the source and are kept apart here.

Tested on: Aedes albopictus
Experiment: Protection time at 0.17 mg/cm2, human-bait technique
Format: in vivo
Settings: for Average PT >95% (% coefficient of variation) / Estimated 100% PT (complete protection time, mean±SE): at the dose of 0.17mg/cm2; for Estimated 100% PT (complete protection time, mean±SE): Kaplan–Meier estimate; for repellent activity, in words: against A. albopictus; for pest or weed control at 0.17 mg/cm2, 0.17 mg/cm2: Aedes albopictus, topical, read-out: Protection time PE%; for Protection time (95% protection): dose of 0.17 mg/cm^2, tests ended after 8 h
Procedure: To evaluate the protection time of derivatives, the PE % was measured with 100 μL of a 5% ethanol solution, corresponding to 0.17 mg/cm^2 of exposed skin, under the same laboratory conditions. Mosquito-exposed skin was treated with 100 μL of ethanol, as the negative hand control. For each volunteer (up to 8), the test was performed every hour, up to 8 h from the application. The protection time of DEET and Icaridin was measured under the same conditions. Since these trials were run in parallel with those aimed to profile the cytotoxicity of the compounds (paragraph 2.6), we interrupted the experiments for those compounds showing to have higher cytotoxicity than Icaridin and DEET as soon as the results were available. For this reason, the number of volunteers differs among the compounds.
The average time until protection which was higher than 95% protection time was considered for each compound. Moreover, for the compounds tested on at least three volunteers, the complete (100%) protection time was also estimated (SPSS 28.01.0) using the Kaplan–Meier survivor function procedure.[22]

| SMILES | Average PT >95% (% coefficient of variation) | Protection time PE% (0.17mg/cm2, 0 min) [%] | Protection time PE% (0.17mg/cm2, 1 h) [%] | Protection time PE% (0.17mg/cm2, 2 h) [%] | Protection time PE% (0.17mg/cm2, 3 h) [%] | Protection time PE% (0.17mg/cm2, 4 h) [%] | Protection time PE% (0.17mg/cm2, 5 h) [%] | Protection time PE% (0.17mg/cm2, 6 h) [%] | Protection time PE% (0.17mg/cm2, 7 h) [%] | Protection time PE% (0.17mg/cm2, 8 h) [%] | Estimated 100% PT (complete protection time, mean±SE) [min] | also measured |
| --- | --- | --- | --- | --- | --- | --- | --- | --- | --- | --- | --- | --- |
| CCCCCCCCCCCC1OCC(CO)O1 (mixture of isomers) [24a] | 0 min |  |  |  |  |  |  |  |  |  |  |  |
| CCCC1(CCC)OCC(CC)(CO)CO1 [7c] | 360 (3.3) min | 99.35 | 94.12 | 97.7 | 98.08 | 99.4 | 91.72 | 97.22 | 94.29 | 94.44 | 60 ± 34 |  |
| CCCCCCCCCC1OCC(O)CO1 (stereo not drawn) [trans-18a.6] |  |  |  |  |  |  |  |  |  |  |  | repellent activity, in words: inactive as a repellent |
| CCCCC(CC)C1OCC(CO)O1 (mixture of isomers) [10a] | 360 (56.8) min | 100 | 100 | 100 | 100 | 100 | 97.5 | 100 | 63.17 |  |  |  |
| CC(C)c1ccc(C2OCC(CO)O2)cc1 (mixture of isomers) [21a] | 0 min |  |  |  |  |  |  |  |  |  |  |  |
| CC1(CCc2ccccc2)OCC(CO)O1 (mixture of isomers) [20a] | 0 min |  |  |  |  |  |  |  |  |  |  |  |
| CCCC1(CCC)OCC(C)(CO)CO1 [7b] | 300 (1.4) min | 100 | 99.45 | 100 | 99.21 | 98.74 | 98.42 | 84.33 |  |  | 220 ± 87 |  |
| CC(C)(C)C1CCC2(CC1)OCC(CO)O2 (mixture of isomers) [19a] | 0 min |  |  |  |  |  |  |  |  |  |  |  |
| CCCCCCCCC1OCC(CO)O1 (mixture of isomers) [13a] | 420 (4.7) min | 99.47 | 100 | 100 | 99.41 | 100 | 97.22 | 99.06 | 96.82 | 82.75 | 270 ± 77 |  |
| OCC1COC2(CCCCCCCCCCC2)O1 (racemic) [25a] | 0 min |  |  |  |  |  |  |  |  |  |  |  |
| CC(C)=CCCC1(C)OCC(CO)O1 (mixture of isomers) [8a] |  | 100 | 100 | 100 | 100 | 100 | 99.39 | 100 | 97.44 | 84.95 |  |  |
| CC1(CO)COC2(CCCCCCC2)OC1 [12b] | 420 (3.1) min |  |  |  |  |  |  |  |  |  | 240 ± 60 | pest or weed control at 0.17 mg/cm2, 0.17 mg/cm2 (0.17mg/cm2, 1 h): 100%; pest or weed control at 0.17 mg/cm2, 0.17 mg/cm2 (0.17mg/cm2, 2 h): 99.5%; pest or weed control at 0.17 mg/cm2, 0.17 mg/cm2 (0.17mg/cm2, 3 h): 98.7%; pest or weed control at 0.17 mg/cm2, 0.17 mg/cm2 (0.17mg/cm2, 4 h): 97.8%; pest or weed control at 0.17 mg/cm2, 0.17 mg/cm2 (0.17mg/cm2, 5 h): 97.2%; pest or weed control at 0.17 mg/cm2, 0.17 mg/cm2 (0.17mg/cm2, 6 h): 93.8%; pest or weed control at 0.17 mg/cm2, 0.17 mg/cm2 (0.17mg/cm2, 7 h): 98.2%; pest or weed control at 0.17 mg/cm2, 0.17 mg/cm2 (0.17mg/cm2, 8 h): 94.9%; Protection time (95% protection): 7 h |
| CC(C)CC1(CC(C)C)OCC(CO)O1 (racemic) [17a] | 300 (2.3) min | 100 | 100 | 100 | 100 | 98 | 98.39 | 92.05 | 74.4 | 43.92 |  |  |
| CCCCCCCC1OCC(C)(CO)CO1 (mixture of isomers) [9b] | 420 (5.6) min | 97.02 | 98.5 |  | 98.35 | 100 | 97.67 | 93.8 | 96.63 | 91.73 | 120 ± 105 |  |
| CCC1(CO)COC(CC(C)C)(CC(C)C)OC1 [17c] | 480 (0) min | 98.72 | 97.92 | 98.68 | 100 | 98.44 | 98.08 | 98.53 | 100 | 100 |  | Protection time (95% protection): 8 h |
| CC1(CO)COC(C)(C)OC1 [5b] | 0 min |  |  |  |  |  |  |  |  |  |  | repellent activity, in words: lack of activity |
| CCCCCC1(CC)OCC(CO)O1 (mixture of isomers) [11a] | 240 (3.8) min | 100 | 100 | 100 | 100 | 98.12 | 93.19 | 72.96 |  |  | 345 ± 66 |  |
